# Test results from patent publication US20210113519A1, “Compositions and Methods for Modulating Permeability of Biological Barriers” (Carnegie Mellon University, priority 2018, published 2021).
# Entries after “also recorded” stand apart in the source; their conditions may differ.
# Legend:
# Caco-2 monolayers = assay: Calcein permeability assay through Caco-2 monolayers; format: cell-based, human; conditions: for calcein permeability, anthocyanidins: applied at 0.33 mg/ml, vs untreated control; for calcein permeability, known phenolic compounds from strawberry: 1 mg/mL
# Protocol: (§1) Caco-2 Cell Monolayers: Caco-2 cells were seeded in Basal Seeding Medium (BSM) on a collagen-coated, 24-Multiwell Insert […]® Plate at a concentration of 2×10^5 cells per well. The plate was incubated at 37° C. for one to two days. On the third day, the BSM was replaced with Enterocyte Differentiation Medium (EDM). The plate was then incubated one to two more days at 37° C. to allow complete formation of differentiated monolayers.
# Permeability Assays: The paracellular diffusion markers were applied at 0.5 mM (calcein) or 0.1 mM (4 kDa FITC-Dextran), dissolved in EDM with the treatment extracts, to the apical side of fully-formed monolayers (TEER>200 Ω·cm^2). Fresh EDM with the markers was used as a negative control. After one hour, media in the basal chambers was sampled and examined for fluorescence at 495/515 nm. Application of calibration curves yielded an amount of mass transferred across each monolayer, which was used in the permeability equation Papp=ΔM/CaAΔt, where Papp is the apparent permeability through the monolayer, ΔM is the marker mass in the basal compartment, Ca is the apical marker concentration, A is the monolayer area, and Δt is the time between samples. Permeability measurements are expressed as the ratio of monolayer permeability at 3 hours after treatment addition to permeability before treatment addition, normalized to any change in negative control monolayers during that time.
# intestinal epithelium = assay: Insulin delivery study: blood glucose in mice after oral enhancer and intestinal insulin injection; format: in vivo
# Protocol: For insulin delivery studies, mice were orally gavaged with PBS (for control) or strawberry treatments (600 mg/kg STRB PPh or 40 mg/kg pelargonidin). One hour later, their initial blood sugar was measured and the animals were placed under anesthesia. Their intestines were surgically exposed, and insulin was injected at the predetermined dose (1 unit per kg body weight unless otherwise specified) into the duodenum of the small intestine, avoiding digestion in the stomach. The mice were closed and secured with tissue adhesive, then kept under anesthesia as their blood sugar levels were monitored each hour for five hours. For comparison to the current standard of insulin delivery, subcutaneous injections were given at 1 U/kg to additional mice, into the scruff on their necks. To determine areas above the curve for each mouse, trapezoidal integration was used to sum the area between known points on the blood glucose curve and the starting blood glucose value for the individual animal.
# [1] = tested on: Caco-2 intestinal epithelial cell monolayers; assay: TEER (transepithelial electrical resistance) assay on Caco-2 monolayers; format: cell-based, human
# Protocol: as §1
# TEERAssay: All TEER (transepithelial electrical resistance) values were measured using a voltohmmeter. Between each TEER measurement, the plate was incubated at 37° C. for a minimum of fifteen minutes to allow the cells to rest. To ensure that all the wells contained fully formed Caco-2 monolayers (>200 Ω·cm^2), initial TEER values were measured prior to treatment exposure. After adding the extracts to each well, TEER values were measured at defined intervals for a total of three hours. The treatments were then aspirated, and the cells rinsed with PBS before refilling the wells with fresh EDM. The plates were then left in the incubator at 37° C. for 24 hours, when recovery TEER values were measured.
# intestinal barrier = assay: Oral FITC-DX4 (4 kDa dextran) absorption in mice after oral enhancer; format: in vivo; conditions: pelargonidin 40 mg/kg oral, then FITC-DX4 600 mg/kg oral
# Protocol: Examination of strawberry extract efficacy in vivo: For dextran efficacy studies, fasted mice were orally gavaged with 600 mg/kg STRB PPh solutions or 40 mg/kg pelargonidin solutions, then gavaged three hours later with 600 mg/kg FITC-DX4. Three hours after the dextran gavage, blood was collected and centrifuged. The serum was removed and examined for FITC concentration by reading for fluorescence on the plate reader and comparing to a unique calibration curve for each experiment. For larger macromolecule studies, 40 kDa dextran (FITC-DX40) was substituted at the same 600 mg/kg concentration.
# [2] = pelargonidin between 0.33 and 1.00 mg/mL
compound,measurement,setting,value
COc1cc(-c2[o+]c3cc(O)cc(O)c3cc2O)cc(O)c1O [petunidin],"calcein permeability, anthocyanidins",Caco-2 monolayers,increase the permeability of calcein; also recorded: statistically significant increases
Oc1ccc(-c2[o+]c3cc(O)cc(O)c3cc2O)cc1 [pelargonidin],duration of hypoglycemia vs 1 U/kg subcutaneous insulin,intestinal epithelium; pelargonidin 40 mg/kg oral + 1 U/kg intestinal insulin,sustained hypoglycemia several hours longer
same,total pharmacodynamic effect (area above the curve) relative to subcutaneous insulin,intestinal epithelium; pelargonidin 40 mg/kg oral + 1 U/kg intestinal insulin vs 1 U/kg subcutaneous,approximately 1.3 times
same,relative bioactivity value,"intestinal epithelium; pelargonidin 40 mg/kg oral + 1 U/kg intestinal insulin vs 1 U/kg subcutaneous insulin, AAC",130%
same,blood glucose response to intestinal insulin,"intestinal epithelium; pelargonidin 40 mg/kg oral, one hour later 1 U/kg insulin intestinal injection, vs saline gavage",substantial reduction in blood glucose; also recorded: sustained reductions in blood glucose levels
same,permeabilization and recovery of barrier function,[1]; 0.33 mg/ml,substantial yet reversible permeabilization
same,permeabilization and recovery of barrier function,[1]; 0.67 mg/ml,substantial yet reversible permeabilization
same,permeabilization and recovery of barrier function,[1]; 1 mg/ml,opened the tight junctions beyond their ability to recover barrier function
same,recovery of barrier function within 24 hours (TEER),"[1]; pelargonidin 0.33, 0.67 and 1.00 mg/mL",only the two lower concentrations recovered their barrier function
same,TEER response (opening of tight junctions),[1]; [2],dose-dependent opening of the tight junctions
same,FITC-DX4 absorption across the intestinal barrier vs saline (PBS) gavage,intestinal barrier,doubled
same,"calcein permeability, known phenolic compounds from strawberry",Caco-2 monolayers,effective permeation enhancer; also recorded: significantly increased the permeability of calcein
same,"calcein permeability, anthocyanidins",Caco-2 monolayers,increase the permeability of calcein; also recorded: statistically significant increases
same,"improvement of calcein permeability, dose response",Caco-2 monolayers; [2],dose dependence was also evident
"OC[C@H]1O[C@@H](Oc2cc3c(O)cc(O)cc3[o+]c2-c2ccc(O)cc2)[C@H](O)[C@@H](O)[C@@H]1O [callistephin, reference compound]","calcein permeability, known phenolic compounds from strawberry",Caco-2 monolayers,not an effective permeation enhancer
COc1cc(-c2[o+]c3cc(O)cc(O)c3cc2O)cc(OC)c1O.[Cl-] [malvidin],"calcein permeability, anthocyanidins",Caco-2 monolayers,increase the permeability of calcein; also recorded: statistically significant increases
insulin: bovine pancreas insulin [reference compound],blood glucose response to subcutaneous insulin,intestinal epithelium; 1 U/kg subcutaneous insulin dose,pronounced but brief response
